Measurements as given in patent US20240352466A1, “APTAMER-siRNA FUSIONS” (APTERNA LIMITED, priority 2020, published 2024).
In the oligonucleotide strings, read from the 5' end, every base follows the letter of its sugar. An asterisk marks phosphorothioate; unmarked linkages are phosphodiester. Other units and linkages are bracketed, terminal groups are in braces. A string of capitals states the bases alone. m = 2'-O-methyl; f = 2'-fluoro

Tests used:
CEBPB mRNA [1] = test: CEBPB mRNA transcripts (qPCR) in BNL-ME mouse cells transfected with naked and ESC siRNAs; assay type: cell-based; conditions: 1, 5 and 10 nM + L3K, lysed after 48 hrs, vs untreated cells
Experimental: The activity of naked and ESC siRNAs was investigated in mouse BNL hepatocyte cells.
BNL-ME mouse cells were seeded at a density of approximately 20,000 cells per well. The following siRNAs were tested: (m) siCEBPB (Ambion) (SEQ ID NOs: 11, 51 and 12, 52), (m) siCEBPB (Ambs63860) (ESC) (SEQ ID NOs: 17, 18), (h/m) siCEBPB (SEQ ID NOs: 7 and 8), (h/m) siCEBPB ESC (SEQ ID NOs: 15 and 16), (h) siCEBPB (AP6143-6145) (SEQ ID NOs: 9 and 10), (r) siCEBPB (Hao) (SEQ ID NOs: 13 and 14). Test siRNAs were transfected at concentrations of 1, 5 and 10 nM in the presence of Lipofectamine™ 3000 (L3K). Control treatments (untreated, mock L3K treatment, and siFLUC at 1, 5 and 10 nM) were also performed. The media was changed 24 hours following transfection, and cells lysed after 48 hrs. CEBPB mRNA transcript were quantified through qPCR.

PANC-Luc cells = test: TfR-siCEBPb in mouse model of pancreatic cancer with liver metastasis; assay type: in vivo; conditions: NOD/SCID mice, 15 mg/kg subcutaneous; for increase in photon count (BTL) relative to PBS and TfR-Fluc controls: after 3 weeks
Experimental: The anti-tumour effects of TfR-siCEBPb was investigated in a mouse model of pancreatic cancer with liver metastasis
Treatment group 1 was administered PBS as a negative control. Treatment group 2 was a TfR-siFLUC construct (SEQ ID NO:32, conjugated to SEQ ID NO:1), as described previously. Treatment groups 3 and 4 was administered ESC modified siCEBPb sequences from Example 4 linked to TfR aptamer SEQ ID NO: 40, an ESC-modified version of the TfR aptamer laid out in SEQ ID NO:1, via a disulphide bridge as described previously. Group 3 is treated with a ribonucleic acid comprising the human-mouse cross reactive siCEBPb described previously, whilst Group 4 is treated with a ribonucleic acid comprising a mouse siCEBPb. These ribonucleic acids correspond to TFR-SS-siCEBPb seq 1 (SEQ ID NO: 41+50) and TfR-SS-siCEBPb seq 2 (SEQ ID NO:34 and 47) respectively.
Each group consisted of five 6-week-old NOD/SCID mice. Three additional mice were included for baseline.
Fourteen days prior to the first dose, mice underwent tumour challenge by performing intrahepatic tumor implantation by injecting […] of a monocellular suspension (in PBS) containing 1×10^6 PANC-Luc cells into a region in the middle lobe of the livers of 6-week-old female NOD/SCID. The day prior to the first dose, mice underwent bioluminescence tumour imaging (BTL) and were weighed to set the week 0 baseline.
Doses were administered as a 100 μL injection on injection days as outlined in Table 2.
At day 21 (week 3), BTL and body weight were recorded, and blood samples were taken, along with pathological sections of pancreas, tumour and liver for study and cryopreservation. The schema of the experiments is shown as FIG. 6.

[2] = system: pancreatic cancer with liver metastasis; test: Combination of TfR-siCEBPb with PD-1 inhibitor pembrolizumab in mouse model of pancreatic cancer with liver metastasis; assay type: in vivo
Source text: The combinatorial anti-tumour effects of TfR-siCEBPb and PD-1 inhibitor pembrolizumab were investigated in the mouse model of pancreatic cancer with liver metastasis. The TfR-siCEBPb (ESC) and TfR-siFLUC sequences from Example 5 were used in this study.
The treatment groups were as follows:
Fourteen days prior to the first dose, mice underwent tumour challenge. The day prior to, and 21 days following the first dose, mice underwent bioluminescence tumour imaging (BTL).

CEBPB mRNA [3] = test: CEBPB mRNA expression in primary mouse hepatocytes exposed to TfR-SS-(h/m) siCEBPb; assay type: cell-based
Source text: The human siCEBPbeta sequence was aligned with chromosome 3 of the mouse genome (Accession NC_0344592.1), in which the CEBPbeta gene is located, using Basic Local Alignment Search Tool (BLAST, https://blast.ncbi.nlm.nih.gov). […] To make a human/mouse cross-reactive siRNA, this sequence was substituted in the sense (G to A) and antisense (C to U) strands. The sense and antisense strands of this human/mouse crossreactive (h/m) siCEBPb correspond to SEQ ID NOs: 15 and 16 respectively. TfR-SS-MALATI siRNA was included as an siRNA effector control.
Primary mouse hepatocytes were exposed to TfR-SS-MALATI (100 nM, 500 nM and 1000 nM) or TfR-SS-(h/m) siCEBPb (100 nM, 500 nM and 1000 nM), or were untreated, and the effects on CEBPB mRNA expression determined as outlined previously.

CEBPB = test: qRT-PCR of CEBPB gene expression in PANC-1, Sup-B15 and CCFR-CEM cell lines; assay type: cell-based, human; conditions: PANC-1, Sup-B15 and CCFR-CEM cells; 400 nM and 800 nM; normalized to GAPDH
Experimental: (§1) In order to evaluate the effects of TfR aptamer-small RNAs, experiments were performed in PANC-1, Sup-B15 and CCFR-CEM cell lines.
(§2) The TfR-SS-siCEBPB construct as described in Example 1 was selected for these experiments. A TfR aptamer (SEQ ID NO:1) fused via a disulphide bridge (SS) to siRNA for MALATI (TfR-MALATI siR) was generated as a negative control for siCEBPB activity. The siCEBPB (SEQ ID NO:9) without a TfR aptamer delivery system was also included for comparative purposes.
(§3) Cells were seeded in plates on Day 0, and the first transfection of TfR aptamer-small RNAs was performed on day 1. The second transfection of TfR aptamer-small RNAs was performed on day 2. Sampling was performed on day 3. Total RNA extraction was performed on samples prior to qRT-PCR quantification of GAPDH, CEBPA, CEBPB, and p21 gene expression. Expression was normalized to GAPDH.
(§4) Transfections were performed at 400 nM and 800 nM concentrations.

CEBPA = test: qRT-PCR of CEBPA gene expression in PANC-1, Sup-B15 and CCFR-CEM cell lines; assay type: cell-based, human; conditions: PANC-1, Sup-B15 and CCFR-CEM cells; 400 nM and 800 nM; normalized to GAPDH
Experimental: as §1, §2, §3, §4

p21 = test: qRT-PCR of p21 gene expression in PANC-1, Sup-B15 and CCFR-CEM cell lines; assay type: cell-based, human; conditions: PANC-1, Sup-B15 and CCFR-CEM cells; 400 nM and 800 nM; normalized to GAPDH
Experimental: as §1, §2, §3, §4

CEBPA mRNA = CEBPA mRNA levels in Panc1 cells after TfR aptamer-saCEBPA constructs, active (L2K) and passive delivery; assay type: cell-based, human; conditions: for CEBPA mRNA levels: passive delivery
Source text: In order to test whether cleavable […] bridge (SS) linkers improved TfR aptamer delivery of small RNA, a series of constructs were made by fusing the 22nt TfR binding aptamer (SEQ ID NO:1) to: i. a CEBPalpha small activating RNA (saCEBPa, SEQ ID NO:24) ii. CEBPbeta small interfering RNA (siCEBPb, SEQ ID NO:9), or iii. siTTR (SEQ ID NO:28).
For the saCEBPa and […] constructs, variants were produced where the aptamer and small RNAs were linked through a disulphide linker (SS).
In order to compare the effects of the SS linker on active and passive delivery, constructs were applied to cells in the presence and absence of transfection agent Lipofectamine™ 2000 (L2K, ThermoFisher Scientific).
The effects of the constructs on CEBPA and B mRNA were measured in Panc1 (human pancreatic cancer cell line) cells. Cells were seeded at a density of approximately 50,000 per well in a 24 well plate, in antibiotic free media with no trypsin (Accutase®). Constructs were applied to cells at 10, 500 or 1000 nM concentration, and mRNA levels measured after incubation for 72 hrs.

(h/m) siCEBPB: human/mouse cross reactive naked CEBPB siRNA (AP6143), SEQ ID NOs: 7 and 8 (chain 1 CUGAGUAAUCACUUAAAGAUU; chain 2 UCUUUAAGUGAUUACUCAGUU; unmodified RNA)
CEBPB mRNA expression (CEBPB mRNA [1]): below half that of the untreated cells

TfR-SS-(h/m) siCEBPb ESC seq 2: ESC modified human-mouse cross reactive siCEBPb linked to TfR aptamer SEQ ID NO:40 via a disulphide bridge (SEQ ID NO: 34 and 47) (chain 1 UUUAUUCACAUUUUUGAAUUGA; chain 2 CUGAGUAAUCGCUUAAAGAUU; chain 1: 2'-fluoro at CU, RNA at AG, backbone not given here; chain 2: chemistry not given here; further chemistry not fully specified)
body weight at 3 weeks relative to week 0 (PANC-Luc cells): body weight gain
increase in photon count (BTL) relative to PBS and TfR-Fluc controls (PANC-Luc cells): lower
effects on IVIS, body weight, tumour volume and weight, seq 2 compared with seq-1 (PANC-Luc cells; week 3): more pronounced
tumour burden relative to controls (PANC-Luc cells; week 3): ability to reduce tumour burden
tumour volume (PANC-Luc cells; week 3): statistically significant lower
tumour weight (PANC-Luc cells; week 3): statistically significant lower
effect on animal weight ([2]; in combination with pembrolizumab): no effect on animal weight

TfR-SS-(h/m) siCEBPb: TfR aptamer linked via SS to human/mouse crossreactive siCEBPb (SEQ ID NOs: 15 and 16) (chain 1 fCmUfGmAfGmUfAfAfUmCfAmCfUmUfAmAfAmGfA*mU*mU; chain 2 mU*fCmU*fUmUfAmAfGmUfGmAmUmUfAmCfUmCfAmG*mU*mU; TfR aptamer attached via disulphide linker, attachment site not given here)
relative CEBPB mRNA expression (CEBPB mRNA [3]; 100 nM): reduced slightly
relative CEBPB mRNA expression (CEBPB mRNA [3]; 500 nM): strongest effect
relative CEBPB mRNA expression (CEBPB mRNA [3]; 1000 nM): more pronounced

TfR-SS-(m) siCEBPb ESC seq 1: ESC modified mouse siCEBPb linked to TfR aptamer SEQ ID NO:40 via a disulphide bridge (SEQ ID NO: 41+50) (chain 1 UUUAUUCACAUUUUUGAAUUGA; chain 2 GCACCCUGCGGAACUUGUUUU; ESC modified; disulphide linker; modified_base 1 OTHER; 2-Prime-fluoro uracil; modified_base 2 OTHER; modified_base 3 OTHER; modified_base 5 OTHER; modified_base 6 OTHER; modified_base 7 OTHER; 2-Prime-fluoro cytosine; modified_base 9 OTHER; modified_base 11 OTHER; modified_base 12 OTHER; 2-P; 2-Prime-fluoro guanine; 2-Prime-O-methyl cytosine; 2-Prime-fluoro adenine; modified_base 4 OTHER; mo)
increase in photon count (BTL) relative to PBS and TfR-Fluc controls (PANC-Luc cells): lower
tumour burden relative to controls (PANC-Luc cells; week 3): ability to reduce tumour burden
tumour volume (PANC-Luc cells; week 3): Slightly lower
tumour weight (PANC-Luc cells; week 3): Slightly lower

pembrolizumab: PD-1 inhibitor pembrolizumab [reference compound]
tumour volume compared to PBS-treated controls ([2]; week 3, pembrolizumab 0.25 mg/kg, TfR constructs 10 mg/kg): smaller tumour volumes

siCEBPbeta: human CEBPB siRNA (SEQ ID NOs: 9 and 10) without a TfR aptamer delivery system (chain 1 CUGAGUAAUCGCUUAAAGAUU; chain 2 UCUUUAAGCGAUUACUCAGUU; listed as RNA, chemistry not given here)
CEBPbeta gene expression (CEBPB): no statistically significant change
C/EBPA gene expression (CEBPA): no statistically significant change
p21 gene expression (p21): no statistically significant change

B1: TfR-SS-saCEBPA: TfR aptamer SEQ ID NO:1 linked through a disulphide linker (SS) to saCEBPa (SEQ ID NO:38+49, 39) (nucleic acid)
chain 1: UUUAUUCACAUUUUUGAAUUGA
chain 2: UUUAUUCACAUUUUUGAAUUGA
chain 3: GACCAGUGACAAUGACCGCUU
chain 4: GCGGUCAUUGUCACUGGUCUU
modifications: TfR aptamer attached via disulphide linker, further chemistry not given here
relative expression of CEBPA mRNA (CEBPA mRNA; 10 nM + L2K (active delivery), 72 hrs, vs untreated samples): within 1 standard deviation of untreated samples
CEBPA mRNA levels (CEBPA mRNA; 500 nM and 1000 nM, 72 hrs): lower
CEBPA mRNA levels (CEBPA mRNA; 1000 nM, vs control): within one standard deviation of the control
